This note sets out measurements from patent US8987286B2, “Substituted pyrimido[1,2-b]indazoles and their use as modulators of the Pi3K/Akt pathway” (Bayer Intellectual Property GmbH, priority 2010, dated 2015).

Molecules are shown by their SMILES. Counter-ions that a name gives are not always drawn.

Chain of Akt1 (P31749 whole entry): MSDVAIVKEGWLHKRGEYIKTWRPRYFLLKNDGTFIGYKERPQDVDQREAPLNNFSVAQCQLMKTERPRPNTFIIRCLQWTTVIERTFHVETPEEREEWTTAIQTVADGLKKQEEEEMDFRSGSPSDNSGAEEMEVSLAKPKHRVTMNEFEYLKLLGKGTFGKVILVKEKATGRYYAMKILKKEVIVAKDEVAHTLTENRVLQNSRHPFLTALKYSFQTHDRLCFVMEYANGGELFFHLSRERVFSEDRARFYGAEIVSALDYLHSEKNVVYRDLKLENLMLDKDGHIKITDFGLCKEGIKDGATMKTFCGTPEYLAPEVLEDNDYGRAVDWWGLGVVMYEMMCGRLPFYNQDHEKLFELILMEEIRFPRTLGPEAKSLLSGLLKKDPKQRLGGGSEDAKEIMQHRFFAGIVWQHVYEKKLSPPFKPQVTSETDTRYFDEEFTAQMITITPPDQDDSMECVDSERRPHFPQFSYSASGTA

This assay has as its target Akt1 (Homo sapiens (Human), UniProt P31749). In words: Akt1 kinase assay (Akt1 TR-FRET assay). Format: biochemical. The conditions noted are these: His-tagged human recombinant full-length Akt1, 10 μM ATP, 1 μM peptide substrate. From the text: Biological Assay 1.0: Akt1 Kinase Assay
Akt1 inhibitory activity of compounds of the present invention was quantified employing the Akt1 TR-FRET assay as described in the following paragraphs.
His-tagged human recombinant kinase full-length Akt1 expressed in insect cells was purchased form Invitrogen (part number PV 3599). As substrate for the kinase reaction the biotinylated peptide biotin-Ahx-KKLNRTLSFAEPG (C-terminus in amide form) was used which can be purchased e.g. from the company Biosynthan GmbH (Berlin-Buch, Germany).
For the assay 50 nl of a 100 fold concentrated solution of the test compound in DMSO was pipetted into a black low volume 384 well microtiter plate (Greiner Bio-One, Frickenhausen, Germany), 2 μl of a solution of Akt1 in assay buffer [50 mM TRIS/HCl pH 7.5, 5 mM MgCl2, 1 mM dithiothreitol, 0.02% (v/v) Triton X-100 (Sigma)] were added and the mixture was incubated for 15 min at 22° C. to allow pre-binding of the test compounds to the enzyme before the start of the kinase reaction. Then the kinase reaction was started by the addition of 3 μl of a solution of adenosine-tri-phosphate (ATP, 16.7 μM=>final conc. in the 5 μl assay volume is 10 μM) and substrate (1.67 μM=>final conc. in the 5 μl assay volume is 1 μM) in assay buffer and the resulting mixture was incubated for a reaction time of 60 min at 22° C. The concentration of Akt1 in the assay was adjusted depending of the activity of the enzyme lot and was chosen appropriate to have the assay in the linear range, typical enzyme concentrations were in the range of about 0.05 ng/μl (final conc. in the 5 μl assay volume).
The reaction was stopped by the addition of 5 μl of a solution of HTRF detection reagents (200 nM streptavidine-XL665 [Cisbio] and 1.5 nM anti-phosho-Serine antibody [Millipore, cat. #35-001] and 0.75 nM LANCE Eu-W 1024 labeled anti-mouse IgG antibody [Perkin Elmer]) in an aqueous EDTA-solution (100 mM EDTA, 0.1% (w/v) bovine serum albumin in 50 mM HEPES/NaOH pH 7.5).
The resulting mixture was incubated 1 h at 22° C. to allow the binding of the biotinylated phosphorylated peptide to the streptavidine-XL665 and the antibodies. Subsequently the amount of phosphorylated substrate was evaluated by measurement of the resonance energy transfer from the anti-mouse-IgG-Eu-Chelate to the streptavidine-XL665. Therefore, the fluorescence emissions at 620 nm and 665 nm after excitation at 350 nm was measured in a HTRF reader, e.g. a Rubystar (BMG Labtechnologies, Offenburg, Germany) or a Viewlux (Perkin-Elmer). The ratio of the emissions at 665 nm and at […] was taken as the measure for the amount of phosphorylated substrate. The data were normalised (enzyme reaction without inhibitor=0% inhibition, all other assay components but no enzyme=100% inhibition).
A general note: Time-resolved FRET reads energy transfer from a long-lived donor to a nearby acceptor.
The term IC50 denotes the concentration that inhibits the measured activity by half. Take `NC1(c2ccc(-c3nc4c5cccc(Br)c5nn4cc3-c3ccccc3)cc2)CCC1` [Example 8.1, 1-[4-(7-Bromo-3-phenylpyrimido[1,2-b]indazol-2-yl)phenyl]cyclobutylamine hydrochloride]: the IC50 was 0.17 µM.
For the compound `NC1(c2ccc(-c3nc4c5cccc(-c6ccc(F)cc6)c5nn4cc3-c3ccccc3)cc2)CCC1` [Example 8.2, 1-{4-[7-(4-Fluorophenyl)-3-phenylpyrimido[1,2-b]indazol-2-yl]-phenyl}cyclobutylamine], the IC50 was 5.6 µM.
As for `NC1(c2ccc(-c3nc4c5cccc(-c6ccc(CO)cc6)c5nn4cc3-c3ccccc3)cc2)CCC1` [Example 8.3, 4-{2-[4-(1-Aminocyclobutyl)phenyl]-3-phenylpyrimido[1,2-b]indazol-7-yl}benzyl alcohol formiate], the IC50 came to 0.72 µM.
As for `CS(=O)(=O)c1cccc(-c2cccc3c2nn2cc(-c4ccccc4)c(-c4ccc(C5(N)CCC5)cc4)nc32)c1` [Example 8.4, 1-{4-[7-(3-Mesylphenyl)-3-phenylpyrimido[1,2-b]indazol-2-yl]-phenyl}cyclobutylamine], the figure is 17 µM; as for `NC1(c2ccc(-c3nc4c5cccc(-c6cn[nH]c6)c5nn4cc3-c3ccccc3)cc2)CCC1` [Example 8.5, 1-{4-[3-Phenyl-7-(1H-pyrazol-4-yl)pyrimido[1,2-b]indazol-2-yl]-phenyl}cyclobutylamine×0.5 formiate], 0.16 µM.
`COC(=O)c1cccc2c1nn1cc(-c3ccccc3)c(-c3ccc(C4(N)CCC4)cc3)nc21` [Example 10, 2-[4-(1-Aminocyclobutyl)phenyl]-3-phenylpyrimido[1,2-b]indazole-7-carboxylic acid methyl ester formiate]: the IC50 is 0.74 µM.
Turning to `NC(=O)/C=C/c1cccc2c1nn1cc(-c3ccccc3)c(-c3ccc(C4(N)CCC4)cc3)nc21` [Example 14, (E)-3-{2-[4-(1-Aminocyclobutyl)phenyl]-3-phenylpyrimido[1,2-b]indazol-7-yl}-acrylamide], the IC50 was determined as 0.58 µM.
Consider `NC1(c2ccc(-c3nc4c5ccc(-c6ccn[nH]6)cc5nn4cc3-c3ccccc3)cc2)CCC1` [Example 15.0, 1-{4-[3-Phenyl-8-(1H-pyrazol-5-yl)pyrimido[1,2-b]indazol-2-yl]phenyl}-cyclobutylamine], for which the IC50 was determined as 0.015 µM.
For `Cc1cc(-c2ccc3c(c2)nn2cc(-c4ccccc4)c(-c4ccc(C5(N)CCC5)cc4)nc32)[nH]n1` [Example 15.1, 1-{4-[8-(3-Methyl-1H-pyrazol-5-yl)-3-phenylpyrimido[1,2-b]indazol-2-yl]phenyl}cyclobutylamine], the IC50 was determined as 0.01 µM.
For `NC1(c2ccc(-c3nc4c5cc(-c6ccn[nH]6)ccc5nn4cc3-c3ccccc3)cc2)CCC1` [Example 15.2, 1-{4-[3-Phenyl-9-(1H-pyrazol-5-yl)pyrimido[1,2-b]indazol-2-yl]-phenyl}cyclobutylamine], the IC50 came out at 0.01 µM.
In the case of `Cc1cc(-c2ccc3nn4cc(-c5ccccc5)c(-c5ccc(C6(N)CCC6)cc5)nc4c3c2)[nH]n1` [Example 15.3, 1-{4-[9-(3-Methyl-1H-pyrazol-5-yl)-3-phenylpyrimido[1,2-b]indazol-2-yl]phenyl}cyclobutylamine], the IC50 was 0.006 µM.
`COC(=O)/C=C/c1ccc2nn3cc(-c4ccccc4)c(-c4ccc(C5(N)CCC5)cc4)nc3c2c1` [Example 15.4, (E)-3-{2-[4-(1-Aminocyclobutyl)phenyl]-3-phenylpyrimido[1,2-b]indazol-9-yl}acrylic acid methyl ester]: the IC50 was determined as 0.01 µM.
`NC(=O)/C=C/c1ccc2nn3cc(-c4ccccc4)c(-c4ccc(C5(N)CCC5)cc4)nc3c2c1` [Example 15.5, (E)-3-{2-[4-(1-Aminocyclobutyl)phenyl]-3-phenylpyrimido[1,2-b]indazol-9-yl}acrylamide]: the IC50 was found to be 0.03 µM.
